Like-named read-outs stand apart in the source and are kept apart here. Non-standard residues stand in square brackets, D forms with d. Residues, ends and D or L forms follow the SMILES beside them. Tyr(3-NO2) = N[C@@H](Cc1ccc(O)c([N+](=O)[O-])c1)C(=O)O; 2Abz = Nc1ccccc1C(=O)O
Legend:
HCMV NO protease = HCMV NO protease (Human cytomegalovirus, UniProt P16753); assay: HCMV NO Protease Assay (inhibition of cleavage of internally quenched fluorogenic peptide substrate); assay type: biochemical; conditions: for IC50: 100 nM HCMV NO protease, 5 μM substrate, 2.5 h at 30°, pH 8
Sequence of HCMV NO protease (P16753 1-256): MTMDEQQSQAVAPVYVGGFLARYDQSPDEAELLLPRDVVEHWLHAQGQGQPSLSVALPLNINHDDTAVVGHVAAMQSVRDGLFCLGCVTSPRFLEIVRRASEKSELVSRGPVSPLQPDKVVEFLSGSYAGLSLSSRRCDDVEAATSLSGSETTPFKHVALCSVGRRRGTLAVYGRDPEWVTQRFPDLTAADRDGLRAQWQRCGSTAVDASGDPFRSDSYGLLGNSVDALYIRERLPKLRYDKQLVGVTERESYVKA
Protocol: This particular assay determines the ability of a test compound to inhibit the activity of HCMV protease. More specifically, in the assay described herein, the inhibitory activity of the test compound is evaluated on the basis of its ability to interfere with the HCMV No protease cleavage of a fluorogenic peptide substrate which in turn is based on the maturation cleavage site of the enzyme.
A. HCMV NO Protease Assay
Material & Methods: Fluorescence measurements were recorded on a Perkin-Elmer LS-50B spectrofluorimeter equipped with a plate reader accessory. UV measurements were recorded on a Thermomax® microplate reader from Molecular Devices Corporation, Menlo Park, Calif., USA.
HCMV NO protease was assayed with an internally quenched fluorogenic substrate based on the maturation cleavage site (Abz-[…](3-NO2)R--OH, kcat /KM =260 M^-1 s^-1). The fluorescence increase upon cleavage of the Ala-Ser amide bond was monitored using excitation λ=312 nm (slit 2.5 nm) and emission λ=415 nm (slit 5 nm). A protocol adaptable to a 96-well plate format was designed for the determination of IC50 values of inhibitors. […] After this period, enzymatic hydrolysis of the fluorogenic substrate in the absence of inhibitor led to about a 30% conversion. Quenching was not required before fluorescence measurement since the total scanning time by the plate reader accessory was brief relative to the duration of the reaction. The aqueous incubation buffer contained 50 mM tris(hydroxymethyl)aminomethane.HCl pH 8, 0.5M Na2 SO4, 50 mM NaCl, 0.1 mM EDTA, 1 mM tris(2-carboxyethyl)phosphine.HCl, 3% v/v DMSO and 0.05% w/v casein. The final concentrations of HCMV NO protease (expressed in terms of total monomer concentration) and substrate were 100 nM and 5 μM respectively. IC50 values were obtained through fitting of the inhibition curve to a competitive inhibition model using SAS NLIN procedure. The mode of inhibition was determined by measurements of the initial rates (in cuvettes) at various substrate concentrations in the buffer as described above. The IC50 values listed in the following tables the IC50 were obtained according to this assay.

[1] = system: HCMV (strain AD169, ATCC VR-538); assay: Plaque Reduction Assay (PRA); assay type: cell-based, human cytomegalovirus (HCMV); conditions: Hs-68 cells, approximately 50 PFU HCMV AD169, 8 days at 37°, read-out: EC50
Protocol: B. Plaque Reduction Assay (PRA)
Hs-68 cells (ATCC #CRL 1635) were seeded in 12-well plates at 83,000 cells/well in 1 mL of DMEM medium (Gibco Canada Inc.) supplemented with 10% fetal bovine serum (FBS, Gibco Canada Inc.). The plates were incubated for 3 days at 37° to allow the cells to reach 80-90% confluency prior to the assay.
The medium was removed from the cells by aspiration. The cells were then infected with approximately 50 PFU of HCMV (strain AD169, ATCC VR-538) in DMEM medium supplemented with 5% inactivated FBS (assay medium). (DMEM medium is commercially available and has been described by R. Dulbecco et al., Virology 1959, 8, 396.) The virus was allowed to adsorb to cells for 2 h at 37°. Following viral adsorption, the medium was removed from the wells by aspiration. The cells were then incubated with or without 1 mL of appropriate concentrations of test reagent in assay medium. Occasionally, test compounds were added 24 h post-infection. After 4 days of incubation at 37°, the medium was exchanged with fresh medium containing test compound and 4 days later the cells were fixed with 1% aqueous formaldehyde and stained with a 2% violet solution in 20% ethanol in water. Microscopic plaques were counted using a stereomicroscope. Drug effects were calculated as a percent reduction in the number of plaques in the presence of each drug concentration compared to the number observed in the absence of drug. Ganciclovir was used as a positive control in all experiments.

[2] = Cytotoxic effects, tetrazolium salt (MTT) metabolic assay; assay type: cell-based; conditions: read-out: TC50 (the source's name)
Protocol: In conjunction with the appropriate starting materials and intermediates, the procedures of examples 1 to 11 can be used to prepare other compounds of formula 1. Examples of compounds thus prepared are listed in the following Tables I, II and III together with mass spectrum data for the compounds, and results from the assays A and B of example 12. Cytotoxic effects noted as TC50 in the following tables were determined according to the tetrazolium salt (MTT) metabolic assay, F. Denizot and F. Lang, J. Immun. Meth., 1986, 89, 271.

[3] = Human betaherpesvirus 5, AD169, Hs68, 192 h

| Compound | IC50 (HCMV NO protease) | EC50 [1, 3] | CC50 [2] | EC50 [1] | kcat/KM (HCMV NO protease; fluorogenic substrate of HCMV NO protease) |
| --- | --- | --- | --- | --- | --- |
| CC[C@@H](NC(=O)N1C(=O)C[C@@H]1C(C)C)c1ccccc1 [Entry 213] | 5.9 µM | 210 µM | > 250 µM | – | – |
| O=C1C[C@H](Cc2ccccc2)N1C(=O)NC1CCc2ccccc21 (stereo partly drawn) [Entry 140] | 14 µM | – | – | – | – |
| C[C@@H]1C(=O)N(C(=O)Nc2ccncc2)[C@H]1Cc1ccccc1 [Entry 204] | 0.97 µM | 205 µM | > 250 µM | – | – |
| CCC(NC(=O)N1C(=O)C[C@@H]1Cc1ccccc1)c1ccncc1 (stereo partly drawn) [Entry 109] | 1.6 µM | 130 µM | > 250 µM | – | – |
| CC(NC(=O)N1C(=O)CC1Cc1ccccc1)c1ccccc1 (stereo not drawn) [Entry 141] | 42 µM | – | – | – | – |
| CN(Cc1ccc(C(F)(F)F)cc1)C(=O)N1C(=O)C[C@@H]1Cc1nccs1 [Entry 218, 4(R)-(2-Thiazolylmethyl)-2-oxoazetidine-1-carboxylic acid N-methyl-N-{{(4-trifluoromethyl)phenyl}methyl}amide] | 5.5 µM | – | 178 µM | 78 µM | – |
| CC[C@H]1CC(=O)N1C(=O)N[C@H](CC)c1ccccc1 [Entry 214] | 7.6 µM | 180 µM | > 250 µM | – | – |
| CCC(NC(=O)N1C(=O)[C@@H](C)[C@@H]1Cc1ccccc1)c1ccncc1 (single isomer, unassigned) [Entry 206] | 3.2 µM | – | > 250 µM | 96 µM | – |
| O=C1C[C@H](Cc2ccc(I)cc2)N1C(=O)NCc1ccncc1 [Entry 211] | 8.6 µM | > 100 µM | > 100 µM | – | – |
| CN(Cc1ccccc1[N+](=O)[O-])C(=O)N1C(=O)C[C@@H]1Cc1ccccc1 [Entry 124] | 6.9 µM | 150 µM | > 250 µM | – | – |
| CN(CCc1ccccc1)C(=O)N1C(=O)C[C@@H]1Cc1ccccc1 [Entry 114] | 38 µM | – | – | – | – |
| CN(Cc1ccc([S+]([O-])C(F)(F)F)cc1)C(=O)N1C(=O)C[C@@H]1Cc1ccccc1 (stereo partly drawn) [Entry 138] | – | > 250 µM | > 250 µM | – | – |
| CN(Cc1ccc([N+](=O)[O-])cc1)C(=O)N1C(=O)C[C@@H]1Cc1nccs1 [Entry 227] | 2.5 µM | > 29 µM | > 29 µM | – | – |
| O=C1C[C@H](Cc2ccccc2)N1C(=O)N1CCCc2ccccc21 [Entry 304] | 154 µM | – | – | – | – |
| O=C1C[C@H](Cc2ccccc2)N1C(=O)NCc1cccnc1 [Entry 142] | 9.7 µM | > 250 µM | > 250 µM | – | – |
| COc1ccc(NC(=O)N2C(=O)C[C@@H]2Cc2ccccc2)cc1 [Entry 102] | 3.9 µM | 215 µM | > 250 µM | – | – |
| CC(c1ccccc1)N(C)C(=O)N1C(=O)CC1Cc1ccccc1 (stereo not drawn) [Entry 120] | 17.7 µM | – | – | – | – |
| O=C1C[C@H](Cc2ccccc2)N1C(=O)N1CCOCC1 [Entry 301] | 142 µM | – | – | – | – |
| O=C1C[C@H](Cc2ccccc2)N1C(=O)N1CCc2ccccc2C1 [Entry 302] | 36 µM | – | – | – | – |
| CC[C@@H](NC(=O)N1C(=O)C[C@@H]1CCc1ccccc1)c1ccccc1 [Entry 212] | 4.3 µM | 140 µM | > 250 µM | – | – |

| Compound | IC50 (HCMV NO protease) | EC50 [1, 3] | CC50 [2] | EC50 [1] | kcat/KM (HCMV NO protease; fluorogenic substrate of HCMV NO protease) |
| --- | --- | --- | --- | --- | --- |
| C[C@H](c1ccccc1)N(C)C(=O)N1C(=O)C[C@@H]1Cc1ccccc1 [Entry 119] | 24 µM | – | – | – | – |
| Cc1ccc(CN(C)C(=O)N2C(=O)C[C@@H]2Cc2ccccc2)cc1 [Entry 129] | 8.9 µM | 140 µM | > 200 µM | – | – |
| CN(Cc1ccc(C(F)(F)F)cc1)C(=O)N1C(=O)C[C@@H]1Cc1ccccc1 [Entry 135, 4(S)-Benzyl-2-oxoazetidine-1-carboxylic acid N-methyl-N-{{4-(trifluoromethyl)phenyl}methyl}amide] | – | 190 µM | > 250 µM | – | – |
| CC(C)C[C@H](NC(=O)[C@H](CCCNC(=N)N)NC(=O)[C@H](CO)NC(=O)[C@H](CO)NC(=O)[C@H](C)NC(=O)[C@H](CC(N)=O)NC(=O)[C@@H](NC(=O)[C@@H](NC(=O)c1ccccc1N)C(C)C)C(C)C)C(=O)N[C@@H](Cc1ccc(O)c([N+](=O)[O-])c1)C(=O)N[C@@H](CCCNC(=N)N)C(=O)O [reference compound] (H-[2Abz]VVNASSRL[Tyr(3-NO2)]R-OH) | – | – | – | – | 260 M⁻¹ s⁻¹ |
| C[C@@H]1C(=O)N(C(=O)NCc2ccncc2)[C@H]1Cc1ccccc1 [Entry 201] | – | 190 µM | > 250 µM | – | – |
| CC[C@@H](NC(=O)N1C(=O)C[C@H]1C(C)(C)C)c1ccccc1 [Entry 215, 4(S)-tert-Butyl-2-oxoazetidine-1-carboxylic acid (1(R)-phenylpropyl)amide] | 41 µM | – | – | – | – |
| CN(Cc1ccccc1)C(=O)N1C(=O)C[C@@H]1Cc1ccccc1 [Entry 112] | – | 150 µM | > 150 µM | – | – |
| CN(Cc1ccc(C(F)(F)F)cc1)C(=O)N1C(=O)C[C@@H]1Cc1ncoc1-c1ccccc1 [Entry 220] | 14 µM | – | – | – | – |
| CCC(NC(=O)N1C(=O)C[C@@H]1Cc1ccccc1)c1ccncc1 (stereo partly drawn) [Entry 108] | 28 µM | – | – | – | – |
| CCC(CC)NC(=O)N1C(=O)C[C@@H]1Cc1ccccc1 [Entry 110] | 38 µM | – | – | – | – |
| CO[C@@H]1C(=O)N(C(=O)NCc2ccncc2)[C@H]1Cc1ccccc1 [Entry 210, 4(S)-Benzyl-3(S)-methoxy-2-oxoazetidine-1-carboxylic acid (4-pyridinylmethyl)amide] | – | 210 µM | > 250 µM | – | – |
| O=C1C[C@H](Cc2ccccc2)N1C(=O)Nc1ccccc1 [Entry 104] | – | > 250 µM | > 250 µM | – | – |
| CN(Cc1ccc(N)cc1)C(=O)N1C(=O)C[C@@H]1Cc1ccccc1 [Entry 125] | 13.4 µM | – | – | – | – |
| COc1ccc(CN(C)C(=O)N2C(=O)C[C@@H]2Cc2ccccc2)cc1 [Entry 130] | – | 110 µM | > 250 µM | – | – |
| O=C1C[C@H](Cc2ccccc2)N1C(=O)NCc1ccccn1 [Entry 143] | 33 µM | – | – | – | – |
| CN(C)C(=O)N1C(=O)C[C@@H]1Cc1ccccc1 [Entry 113] | 50 µM | – | – | – | – |
| CN(CC(=O)OCc1ccccc1)C(=O)N1C(=O)C[C@@H]1Cc1ccccc1 [Entry 115] | 11.7 µM | – | – | – | – |
| CCC(c1ccccc1)N(C)C(=O)N1C(=O)CC1Cc1ccccc1 (stereo not drawn) [Entry 123] | 30 µM | – | – | – | – |
| O=C1C[C@H](Cc2ccccc2)N1C(=O)N1CCCC1 [Entry 303] | 63 µM | – | – | – | – |

From US6242439A, “Azetidinone derivatives for the treatment of HCMV infections” (Boehringer Ingelheim (Canada) Ltd., priority 1998, dated 2001)
